According to ChEMBL document CHEMBL1150028, “-((Tetronoyl)oxy)- and -((tetramoyl)oxy)methyl ketone inhibitors of the interleukin-1 converting enzyme (ICE)” (Bioorg Med Chem Lett, 1997):

Columns and labels:
[1] = Stability of compound was determined by its half life period; assay type: physicochemical
Caspase-1 (Homo sapiens) = target: T1, Caspase-1 (Homo sapiens) (UniProt P29466); assay: Inhibitory activity against IL-1 beta converting enzyme was determined
T1 sequence (whole entry): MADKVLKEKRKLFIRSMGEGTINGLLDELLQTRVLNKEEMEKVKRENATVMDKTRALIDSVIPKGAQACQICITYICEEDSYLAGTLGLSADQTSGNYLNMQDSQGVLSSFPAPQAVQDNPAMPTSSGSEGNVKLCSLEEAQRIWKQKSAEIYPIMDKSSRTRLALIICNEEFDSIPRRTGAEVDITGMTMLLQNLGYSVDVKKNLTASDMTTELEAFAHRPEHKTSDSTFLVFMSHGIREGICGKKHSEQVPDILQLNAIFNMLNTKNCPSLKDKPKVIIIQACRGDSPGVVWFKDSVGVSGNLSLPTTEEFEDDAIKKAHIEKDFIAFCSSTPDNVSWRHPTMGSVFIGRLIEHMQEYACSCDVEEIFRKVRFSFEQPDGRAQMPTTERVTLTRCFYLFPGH

half-life [1] | K obs / 1 (Caspase-1 (Homo sapiens)) | SMILES
0.86 h | 5700 M⁻¹ s⁻¹ | O=C(O)C[C@H](NC(=O)OCc1ccccc1)C(=O)COC1=C(c2ccccc2)C(=O)OC1
20 h |  | CC(C)[C@H](NC(=O)OCc1ccccc1)C(=O)N[C@@H](C)C(=O)N[C@@H](CC(=O)O)C(=O)COC1=C(Cc2ccccc2)C(=O)OC1
 | 21200 M⁻¹ s⁻¹ | CC(C)[C@H](NC(=O)OCc1ccccc1)C(=O)N[C@@H](CC(=O)O)C(=O)COC1=C(Cc2ccccc2)C(=O)OC1
 | 41000 M⁻¹ s⁻¹ | CC(C)[C@H](NC(=O)OCc1ccccc1)C(=O)N[C@@H](CC(=O)O)C(=O)COC(=O)c1c(Cl)cccc1Cl
3.9 h | 3070 M⁻¹ s⁻¹ | O=C(O)C[C@H](NC(=O)OCc1ccccc1)C(=O)COC1=C(c2ccccc2)C(=O)CC1
 | 27900 M⁻¹ s⁻¹ | CC(C)[C@H](NC(=O)OCc1ccccc1)C(=O)N[C@@H](CC(=O)O)C(=O)COC1=C(c2ccccc2)C(=O)OC1
 | 4500 M⁻¹ s⁻¹ | Cc1ccc(C2=C(OCC(=O)[C@H](CC(=O)O)NC(=O)OCc3ccccc3)COC2=O)cc1
 | < 25 M⁻¹ s⁻¹ | O=C(O)C[C@H](NC(=O)OCc1ccccc1)C(=O)COC1=C(Cl)C(=O)OC1
 | 7100 M⁻¹ s⁻¹ | O=C(O)C[C@H](NC(=O)OCc1ccccc1)C(=O)COC(=O)c1c(Cl)cccc1Cl
95 h | 8500 M⁻¹ s⁻¹ | CC(C)[C@H](NC(=O)OCc1ccccc1)C(=O)N[C@@H](CC(=O)O)C(=O)COC1=C(c2ccccc2)C(=O)NC1
 | 260 M⁻¹ s⁻¹ | CC1(C)OC(=O)C(c2ccccc2)=C1OCC(=O)[C@H](CC(=O)O)NC(=O)OCc1ccccc1
 | 640 M⁻¹ s⁻¹ | O=C(O)C[C@H](NC(=O)OCc1ccccc1)C(=O)COC1=C(c2ccc(Cl)c(Cl)c2)C(=O)OC1
 | 4000 M⁻¹ s⁻¹ | COc1ccc(C2=C(OCC(=O)[C@H](CC(=O)O)NC(=O)OCc3ccccc3)COC2=O)cc1
 | 188 M⁻¹ s⁻¹ | O=C(O)C[C@H](NC(=O)OCc1ccccc1)C(=O)COC1=CC(=O)OC1
 | 4100 M⁻¹ s⁻¹ | O=C(O)C[C@H](NC(=O)OCc1ccccc1)C(=O)COC1=C(c2ccc(Cl)cc2)C(=O)OC1
9.8 h | 2850 M⁻¹ s⁻¹ | O=C(O)C[C@H](NC(=O)OCc1ccccc1)C(=O)COC1=C(Cc2ccccc2)C(=O)OC1
